For one assay, the system named is LoVo. Description: MTT cell viability, LoVo cells. To be noted: LoVo colon adenocarcinoma, p53 WT. Format: cell-based, human. How it is done: (§1) Cell viability assay in several human cancer cell lines (See Tables 1 to 10). Cell lines were cultured in RPMI 1640 (or recommended medium when indicated) medium supplemented with 10% fetal calf serum, penicillin (50 IU/mL) and streptomycin ([…]) at 37° C. in 5% CO2. Cell viability studies was carried using the MTT (3-(4,5-dimethylthiazol-2-yl)-2,5-diphenyltetrazolium bromide) assay as previously described (31). Briefly, ≈2×10^3 CRC cells were be seeded in 96-well microtiter plates in 100 μL RPMI 1640 in the presence of 10% calf serum. […] After 1 h, 210 μL/well of full complemented media was added, the cells were grown for 48 h and then treated with 20 μL of a solution of MTT (5 mg/mL) for 2 h. The medium was discarded and DMSO ([…]) was added to each well and incubated with gentle shaking for 20 min at room temperature. The absorbance at 595 nm of the solution is analyzed using a Tecan Genios Multifunctional Microplate Reader (Tecan System Inc) and the background at 670 nm subtracted. RNA-Seq analysis was performed using state-of-the-art bioinformatics tools. Briefly, raw RNA-Seq reads were mapped to human genome (hg38) using STAR aligner (v2.7.3a). Gencode Release 36 reference was used for annotation. Transcript and gene expression levels were quantified using the IsoEM (37) with default parameters. Counts per million (CPM) method is used for normalization. Differential expression was done using DESeq2 with default parameters. Genes involved in different biological pathways (human) were searched from Geneontology (http://geneontology.org/). Bioinformatics results can be validated by using Partek Flow (v10.0.21.0912), a bioinformatics pipeline developed by Zymo Research (https://www.zymoresearch.com/).
(§2) Cell viability was evaluated using the MTT assay as described above.

A further assay deals with SW620. Description: MTT cell viability, SW620 cells. Format: cell-based, human. As to conditions: SW620 colon adenocarcinoma, p53 Mutant. Here is the method:
as §1, §2

A further assay concerns HT29. Description: MTT cell viability, HT29 cells. Format: cell-based, human. As to conditions: HT29 colon adenocarcinoma, p53 Mutant. Here is the method:
as §1, §2

Another assay deals with SW626. Description: MTT cell viability, SW626 cells. Format: cell-based, human. To be noted: p53 Mutant. How it is done:
as §1, §2

A further assay deals with SW480. Description: MTT cell viability, SW480 cells. Format: cell-based, human. As to conditions: SW480 colon adenocarcinoma, p53 Mutant. Here is the method:
as §1, §2

For the next assay, the system named is A2780. Description: MTT cell viability, A2780 ovarian cells. The format is cell-based, human. As to conditions: p53 WT. Here is the method:
(§3) Cell viability assay in several human cancer cell lines (See Tables 1 to 10). Cell lines were cultured in RPMI 1640 (or recommended medium when indicated) medium supplemented with 10% fetal calf serum, penicillin (50 IU/mL) and streptomycin ([…]) at 37° C. in 5% CO2. Cell viability studies was carried using the MTT (3-(4,5-dimethylthiazol-2-yl)-2,5-diphenyltetrazolium bromide) assay as previously described (31). Briefly, ≈2×10^3 CRC cells were be seeded in 96-well microtiter plates in 100 μL RPMI 1640 in the presence of 10% calf serum. After 24 h incubation the cells were washed with PBS and treated with 30 μL/well of PBS or RPMI 1640 (or recommended) media containing cyclotides MCo-52, MCoTI-I (used as negative control), nutlin-3a (used as positive control) or MI-77301 (used as positive control for p53-mutated or p53-null cells) at the indicated doses for 1 h at 37° C. in 5% CO2. After 1 h, 210 μL/well of full complemented media was added, the cells were grown for 48 h and then treated with 20 μL of a solution of MTT (5 mg/mL) for 2 h. The medium was discarded and DMSO ([…]) was added to each well and incubated with gentle shaking for 20 min at room temperature. The absorbance at 595 nm of the solution is analyzed using a Tecan Genios Multifunctional Microplate Reader (Tecan System Inc) and the background at 670 nm subtracted. RNA-Seq analysis was performed using state-of-the-art bioinformatics tools. Briefly, raw RNA-Seq reads were mapped to human genome (hg38) using STAR aligner (v2.7.3a). Gencode Release 36 reference was used for annotation. Transcript and gene expression levels were quantified using the IsoEM (37) with default parameters. Counts per million (CPM) method is used for normalization. Differential expression was done using DESeq2 with default parameters. Genes involved in different biological pathways (human) were searched from Geneontology (http://geneontology.org/). Bioinformatics results can be validated by using Partek Flow (v10.0.21.0912), a bioinformatics pipeline developed by Zymo Research (https://www.zymoresearch.com/).
(§4) Tables 1 through 10 show in vitro activity of cyclotide MCo-52-2-cTAT against different human cancer cell lines, some with null-, mutated, or wildtype p53 phenotypes. Cell viability was evaluated using the MTT assay as described above.

A further assay has as its system NIHOVCAR3. Description: MTT cell viability, NIHOVCAR3 ovarian cells. As to conditions: p53 Mutant. Format: cell-based, human. Here is the method:
as §3, §4

The subject of the next assay is SKOV 3. Description: MTT cell viability, SKOV 3 ovarian cells. Format: cell-based, human. To be noted: p53 Mutant. How it is done:
as §3, §4

In the next assay the test system is ES-2. Description: MTT cell viability, ES-2 ovarian cells. Format: cell-based, human. As to conditions: p53 Mutant. How it is done: as §3, §4
The next assay relates to Capan-1. Description: MTT cell viability, Capan-1 cells. Format: cell-based, human. To be noted: Capan-1 pancreatic ductal adenocarcinoma, p53 Mutant. Here is the method: as §1, §2
The subject of another assay is AsPC-1. Description: MTT cell viability, AsPC-1 cells. Format: cell-based, human. To be noted: AsPC-1 pancreatic ductal adenocarcinoma, p53 Mutant. Here is the method: as §1, §2
The next assay concerns MIA PaCa-2. Description: MTT cell viability, MIA PaCa-2 cells. The format is cell-based, human. As to conditions: MIA PaCa-2 pancreatic ductal adenocarcinoma, p53 Mutant. How it is done:
as §1, §2

A further assay concerns PANC-1. Description: MTT cell viability, PANC-1 cells. To be noted: PANC-1 pancreatic ductal adenocarcinoma, p53 Mutant. The format is cell-based, human. How it is done: as §1, §2
Another assay has as its system CFPAC-1. Description: MTT cell viability, CFPAC-1 cells. Format: cell-based, human. As to conditions: CFPAC-1 pancreatic ductal adenocarcinoma, p53 Mutant. Here is the method: as §1, §2
A further assay concerns LNCaP. Description: MTT cell viability, LNCaP cells. The format is cell-based. To be noted: LNCaP prostate carcinoma, p53 WT, read-out: Cell viability, Human Prostate Cancer Cells. Here is the method: as §3, §4
The next assay has as its system DU145. Description: MTT cell viability, DU145 cells. Format: cell-based. As to conditions: DU145 prostate carcinoma, p53 Mutant, read-out: Cell viability, Human Prostate Cancer Cells. Here is the method: as §3, §4
For another assay, the system named is PC-3. Description: MTT cell viability, PC-3 cells. To be noted: PC-3 prostate carcinoma, p53 Mutant, read-out: Cell viability, Human Prostate Cancer Cells. The format is cell-based. How it is done: as §3, §4
[1] abbreviates: SW626 colon adenocarcinoma metastatic site: Ovary, MTT (Table 1), read-out: EC50.
Setting [2] is: SW626 ovarian cells, MTT (Table 7), read-out: Cell Viability Assay.

Like-named read-outs stand apart in the source and are kept apart here. Numbered stars: 1 amine (or outer) side, 2 acyl side, 3 side chain; on linkers, the order of the positions; unused ones are H or OH. Bridge positions count the residues as written; N and C are the ends. Square brackets hold non-standard residues; d marks the D form. Peptide text beside a SMILES is read from it. I, II: the chains in the order shown. X1 = O=C(CCc1cn(CCOCCOCCOCCC(=O)[*:2])nn1)[*:1]; isoGln = NC(=O)[C@H](CCC(=O)[*:2])N[*:1] Bounds are passed on as bounds.

Regarding `N=C(N)NCCC[C@@H]1NC(=O)[C@@H](CCCNC(=N)N)NC(=O)[C@H](CCCCN)NC(=O)[C@@H](N)CCCCNC(=O)CC[C@@H](C(=O)O)NC(=O)[C@@H](CCCNC(=N)N)NC(=O)[C@H](CCCNC(=N)N)NC(=O)[C@@H](CCCCN)NC(=O)[C@H](CCCCN)NC(=O)[C@@H](CCCNC(=N)N)NC(=O)CNC(=O)[C@@H](CCCNC(=N)N)NC1=O` [cTAT] (H-KK[dR]R[dR]G[dR]K[dK]R[dR]E-OH; lactam 1-12; N-terminus and C-terminus assumed), the EC50 in the assay on LoVo, in the assay on SW620, in the assay on HT29, in the assay with SW626 (setting [1]), with SW626 (setting [2]) and in the assay with SW480 was greater than 100 µM in each case. Besides, the EC50 with A2780, with NIHOVCAR3, in the assay with SKOV 3, with ES-2, in the assay on Capan-1 and with AsPC-1 was greater than 100 µM each time. Besides, the EC50 with MIA PaCa-2, in the assay on PANC-1, in the assay with CFPAC-1, in the assay with LNCaP, in the assay on DU145 and in the assay on PC-3 was greater than 100 µM in each case.

On to “I: cyclo(ACICRHDSYCGSGSDGGVCPNLYLLCRRDKDCPG) / II: KK[dR]R[dR]G[dR]K[dK]R[dR][isoGln] (disulfide I:2-I:19, I:4-I:26, I:10-I:32; linker I:30-II:N via X1; lactam II:1-II:C) [Cyclotide 52-2-cTAT]”, for which the EC50 was 10.7 ± 0.9 µM in the assay on LoVo; 15.3 ± 2 µM with SW620; 9.9 ± 0.9 µM with HT29; 27.5 ± 0.7 µM in the assay with SW626 (setting [2]); 10.9 ± 1.3 µM in the assay on SW480; 9.7 ± 0.5 µM in the assay with A2780. The EC50 with NIHOVCAR3 turned out to be 7.8 ± 0.1 µM; in the assay on SKOV 3, 19.1 ± 0.1 µM; in the assay with ES-2, 6.38 ± 0.1 µM; in the assay with Capan-1, 3.3 ± 0.3 µM; in the assay with AsPC-1 it was 11.5 ± 1.5 µM; in the assay on MIA PaCa-2 it was 15.4 ± 1.6 µM. Also, the EC50 in the assay on PANC-1 came out at 20.5 ± 2.5 µM; in the assay on CFPAC-1 it was 13.4 ± 1.8 µM; with LNCaP, 6.3 ± 1.1 µM; with DU145, 37 ± 1.2 µM; in the assay on PC-3 it was 23.2 ± 0.6 µM.

Consider `COc1ccc(C2=N[C@@H](c3ccc(Cl)cc3)[C@@H](c3ccc(Cl)cc3)N2C(=O)N2CCNC(=O)C2)c(OC(C)C)c1` [Nutlin 3A], for which the EC50 is 1.5 ± 0.1 µM with LoVo; greater than 100 µM with SW620; greater than 100 µM in the assay with HT29; greater than 100 µM in the assay with SW626 (setting [1]); 50.3 ± 0.2 µM in the assay on SW626 (setting [2]); 58.7 ± 7.5 µM in the assay with SW480. For the same molecule, the EC50 was 9.3 ± 0.5 µM with A2780; 57.7 ± 0.1 µM with NIHOVCAR3; greater than 100 µM with SKOV 3; 92.3 ± 1.2 µM with ES-2; greater than 100 µM with Capan-1; greater than 100 µM in the assay with AsPC-1. The EC50 with MIA PaCa-2 was greater than 50 µM; in the assay with PANC-1, 41.9 ± 6.9 µM; with CFPAC-1 it was greater than 50 µM; in the assay on LNCaP, 19.7 ± 1.3 µM; with DU145 it was greater than 100 µM; with PC-3, greater than 100 µM.

For the origin of these results see patent publication US20250325684A1, “POTENT ANTI-CANCER CYCLOTIDES” (University of Southern California, priority 2022, published 2025).
